Measurements published in US20110160052A1, “Active Compound Combinations” (Bayer CropScience AG, priority 2007, published 2011).

How the values were obtained:
Type in all cases: in vivo
Spodoptera frugiperda = Spodoptera frugiperda test (sprayed cabbage leaves); details: mortality of caterpillars on cabbage leaves
Experimental: (§1) Solvent: 7 parts by weight of dimethylformamide Emulsifier: 2 parts by weight of alkylaryl polyglycolether
(§2) To produce a suitable preparation of active compound, 1 part by weight of active compound is mixed with the stated amount of solvent and emulsifier, and the concentrate is diluted with emulsifier-containing water to the desired concentration.
Cabbage leaves (Brassica oleracea) are treated by being sprayed into the preparation of the active compound of the desired concentration and are infested with larvae of the fall army worm (Spodoptera frugiperda) as long as the leaves are still moist.
After the specified period of time, the mortality in % is determined. 100% means that all the caterpillars have been killed; 0% means that none of the caterpillars have been killed.

Nilaparvata lugens = Nilaparvata lugens test (sprayed rice plants); details: mortality of hopper larvae on rice
Experimental: as §1, §2
Rice plants (Oryza sativa) are treated by being sprayed with the preparation of the active compound at the desired concentration and are infested with larvae of the Brown plant hopper (Nilaparvata lugens) as long as the leaves are still moist.
After the specified period of time, the mortality in % is determined. 100% means that all the hopper larvae have been killed; 0% means that none of the hopper larvae have been killed.

Phaedon cochleariae = Phaedon cochleariae test (sprayed cabbage leaves); details: mortality of beetle larvae on cabbage leaves
Experimental: as §1, §2
Cabbage leaves (Brassica oleracea) are treated by being sprayed with the preparation of the active compound at the desired concentration and are infested with larvae of the mustard beetle (Phaedon cochleariae) as long as the leaves are still moist.
After the specified period of time, the mortality in % is determined. 100% means that all the beetle larvae have been killed; 0% means that none of the beetle larvae have been killed.

[1] = system: Blumeria graminis f sp. hordei; assay: Blumeria test (barley)/SAR 5d; details: 1000 ppm, inoculated 5 days after spraying, evaluated 7 days after inoculation
Experimental: Solvent: 50 parts by weight of n,n-dimethylacetamid Emulsifier: 1 part by weight of alkylaryl polyglycol ether
To produce a suitable preparation of active compound, 1 part by weight of active compound or active compound combination is mixed with the stated amounts of solvent and emulsifier, and the concentrate is diluted with water to the desired concentration.
To test for systemic activated resistance, young plants are sprayed with the preparation of active compound or active compound combination at the stated rate of application. After the spray coating has dried on, the plants are placed in a greenhouse at a temperature of approximately 18° C. and a relative atmospheric humidity of approximately 80%.
5 days after spraying, the plants are dusted with spores of Blumeria graminis f sp. hordei. The plants then remain in a greenhouse at a temperature of approximately 18° C. and a relative atmospheric humidity of approximately 80% to promote the development of mildew pustules.
The test is evaluated 7 days after the inoculation, 1. and 2. leaf separated. 0% means an efficacy with corresponds to that of the control while an efficacy of 100% means that no disease is observed.

`CN/C(=N\[N+](=O)[O-])NCc1cnc(Cl)s1` [Clothianidin, clothianidin] was tested, and the “Efficacy in % after 6d” value (Spodoptera frugiperda; 8 ppm) was 25%, the “Efficacy in % after 3d” value (Nilaparvata lugens; 0.032 ppm) was 55% and the “Efficacy in % after 3d” value (Nilaparvata lugens; 0.8 ppm) was 70%. The “Efficacy in % after 6d” value (Phaedon cochleariae; 0.16 ppm) was 0%.

`N#Cc1nn(-c2c(Cl)cc(C(F)(F)F)cc2Cl)c(N)c1[S+]([O-])C(F)(F)F` (stereo not shown) [Fipronil, fipronil] was tested, and the “Efficacy in % after 6d” value (Spodoptera frugiperda; 8 ppm) was 65%, the “Efficacy in % after 3d” value (Nilaparvata lugens; 0.032 ppm) was 0% and the “Efficacy in % after 3d” value (Nilaparvata lugens; 20 ppm) was 70%. For the same compound, the “Efficacy in % after 6d” value (Phaedon cochleariae; 0.032 ppm) was 0%.

`N#C/N=C1\SCCN1Cc1ccc(Cl)nc1` [Thiacloprid, thiacloprid] was tested, and the “Efficacy in % after 3d” value (Nilaparvata lugens; 4 ppm) was 0%.

In the case of `CC[S+]([O-])c1c(C#N)nn(-c2c(Cl)cc(C(F)(F)F)cc2Cl)c1N` (stereo not shown) [Ethiprole, ethiprole], the Efficacy in % ([1]; 1st leaf) is reported as 22%, the Efficacy in % ([1]; 2nd leaf) is reported as 22% and the “Efficacy in % after 3d” value (Nilaparvata lugens; 0.16 ppm) is reported as 0%.

`N#Cc1ccccc1NC(=O)c1snc(Cl)c1Cl` [Isotianil, 3,4-dichloro-N-(2-cyanophenyl)-5-isothiazolecarboxamide] was tested, and the “Efficacy in % after 6d” value (Spodoptera frugiperda; 200 ppm) was 0%.
